The values below come from US20050261288A1, “Tetracyclic lactam derivatives and uses thereof” (priority 2004, published 2005).

The experiment addresses T1, PARP (Mus musculus, UniProt P11103).
T1 construct: endogenous in cells; host or cells: RAW mouse macrophages
Put plainly: PARP activation in cultured murine macrophages, whole-cell macrophage assay (peroxynitrite-induced). As to conditions: for IC50: PARP activation in cultured murine macrophages. The format is cell-based. On the procedure: Without being bound by theory, Applicants believe that Tetracyclic Lactam Derivatives that inhibit PARP are useful for treating or preventing a Condition.
In a typical procedure, RAW mouse macrophages are cultured in DMEM medium with high glucose and supplemented with 10% fetal bovine serum. Cells are used at 80% confluence in 12-well plates. Cells are pretreated with various concentrations (100 nM-1 μM) of a Tetracyclic Lactam Derivative for 10 min. Peroxynitrite, a prototypical oxidant which induces DNA single strand breakage, is used to induce PARP activation. In a typical assay, peroxynitrite is diluted in phosphate buffered saline (PBS) (pH 11.0) and added to the cells in a bolus of 50 μL. Cells are then incubated for 20 minutes. Peroxynitrite is decomposed by incubation for 30 min at pH 7.0, and used as a control. After the 20 minute incubation period, the cells are spun, the medium is aspirated and the cells are resuspended in 0.5 mL assay buffer (56 mM HEPES pH 7:5, 28 mM KCl, 28 mM NaCl, 2 mM MgCl2, 0.01% w/v digitonin and 0.125 μM NAD^+ and 0.5 μCi/ml ^3H-NAD^+). Following incubation in assay buffer, (10 min at 37° C.), PARP activity can be measured as follows: 200 μL ice cold 50% w/v TCA is added and the samples are incubated for 4 h at 4° C. Samples are then spun (10 min @ 10,000 g) and the resulting pellets are washed twice with ice cold 5% w/v TCA and solubilized overnight in 250 μL 2% w/v SDS/0.1 N NaOH at 37° C. The contents of the tubes are added to 6.5 mL ScintiSafe Plus scintillation liquid (Fisher Scientific) and radioactivity is determined using a liquid scintillation counter (Wallac, Gaithersburg, Md.).
Examples of the inhibitory effects of illustrative Tetracyclic Lactam Derivatives in the whole-cell macrophage assay are illustrated in Tables 3 and 4 below.

T1 sequence (P11103 whole entry): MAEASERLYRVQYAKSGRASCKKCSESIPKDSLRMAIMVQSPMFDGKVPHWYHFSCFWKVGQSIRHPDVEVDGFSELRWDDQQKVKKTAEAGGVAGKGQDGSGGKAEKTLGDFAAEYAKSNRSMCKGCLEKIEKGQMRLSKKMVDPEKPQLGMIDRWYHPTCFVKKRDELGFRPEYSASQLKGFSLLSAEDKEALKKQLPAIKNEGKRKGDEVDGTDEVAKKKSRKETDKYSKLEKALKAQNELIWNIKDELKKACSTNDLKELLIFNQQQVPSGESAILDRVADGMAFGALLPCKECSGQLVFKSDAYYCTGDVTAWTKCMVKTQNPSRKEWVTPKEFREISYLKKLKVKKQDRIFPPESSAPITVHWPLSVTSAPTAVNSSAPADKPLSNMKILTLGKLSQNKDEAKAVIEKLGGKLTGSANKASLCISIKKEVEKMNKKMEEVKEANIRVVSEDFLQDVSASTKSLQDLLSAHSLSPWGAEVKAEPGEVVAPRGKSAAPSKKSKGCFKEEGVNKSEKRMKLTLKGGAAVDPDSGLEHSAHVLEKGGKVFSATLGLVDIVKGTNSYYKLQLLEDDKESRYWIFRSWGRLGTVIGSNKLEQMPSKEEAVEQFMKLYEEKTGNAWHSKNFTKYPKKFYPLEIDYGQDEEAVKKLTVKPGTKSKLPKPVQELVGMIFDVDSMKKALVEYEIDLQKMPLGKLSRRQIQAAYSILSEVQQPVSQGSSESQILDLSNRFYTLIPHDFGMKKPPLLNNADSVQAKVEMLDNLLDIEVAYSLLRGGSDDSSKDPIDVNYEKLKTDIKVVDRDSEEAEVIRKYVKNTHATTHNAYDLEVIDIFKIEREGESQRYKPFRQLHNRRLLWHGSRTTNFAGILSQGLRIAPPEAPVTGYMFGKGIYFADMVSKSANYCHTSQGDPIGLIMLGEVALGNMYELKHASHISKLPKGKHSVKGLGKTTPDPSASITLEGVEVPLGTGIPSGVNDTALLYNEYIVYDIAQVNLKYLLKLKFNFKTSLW

As for `COC(=O)n1c2ccccc2c2[nH]c(=O)c3ccccc3c21` [Compound 61, METHYL-5-OXO-5,6-DIHYDRO-INDOLO[3,2-C]ISOQUINOLINE-11-CARBOXYLATE], the IC50 (usually the concentration that inhibits the measured activity by half) was 10 to 100 µM.

For the compound `CCOC(=O)n1c2ccccc2c2[nH]c(=O)c3ccccc3c21` [Compound 63, ETHYL-5-OXO-5,6-DIRYDRO-INDOLO[3,2-C]ISOQUINOLINE-11-CARBOXYLATE], the IC50 was in the range of 1 to 10 µM. Moreover, under “0.1 μM, RAW mouse macrophages, peroxynitrite-induced PARP activation”, the inhibition – broadly, the share of the control response that was lost under treatment – at 0.1 µM was found to be 33%. Besides, the inhibition at 0.3 µM (0.3 μM, RAW mouse macrophages, peroxynitrite-induced PARP activation) amounted to 43%. For the setting “1 μM, RAW mouse macrophages, peroxynitrite-induced PARP activation”, this compound showed an inhibition at 1 µM of 50%. 3 µM produced 65% inhibition (3 μM, RAW mouse macrophages, peroxynitrite-induced PARP activation).

On to `CCCOC(=O)n1c2ccccc2c2[nH]c(=O)c3ccccc3c21` [Compound 107, N-PROPYL-5-OXO-5,6-DIHYDRO-INDOLO[3,2-C]ISOQUINOLINE-11-CARBOXYLATE], for which the IC50 lay in the range of 10 to 100 µM.

`CC(C)OC(=O)n1c2ccccc2c2[nH]c(=O)c3ccccc3c21` [Compound 108, ISO-PROPYL-5-OXO-5,6-DIHYDRO-INDOLO[3,2-C]ISOQUINOLINE-11-CARBOXYLATE]: the IC50 fell in the range of 10 to 100 µM.

With `CCCCOC(=O)n1c2ccccc2c2[nH]c(=O)c3ccccc3c21` [Compound 109, N-BUTYL-5-OXO-5,6-DIHYDRO-INDOLO[3,2-C]ISOQUINOLINE-11-CARBOXYLATE], the IC50 fell in the range of 10 to 100 µM.
